{"source": "DBAASP", "assay_in_all_cases": "≥ marks a high value that may be exact or a test limit, other limits are often not marked, values filed in µg/mL are converted to µM", "key": {"[1]": {"tested_on": "Enterococcus faecalis ATCC 29212"}, "[2]": {"tested_on": "Pseudomonas aeruginosa ATCC 15442"}, "[3]": {"tested_on": "Staphylococcus aureus ATCC 25923"}, "[4]": {"tested_on": "Staphylococcus aureus ATCC 29213"}, "[5]": {"tested_on": "Staphylococcus aureus ATCC 6538"}, "[6]": {"tested_on": "Staphylococcus epidermidis ATCC 35984"}, "[7]": {"tested_on": "Escherichia coli"}, "[8]": {"tested_on": "Listeria innocua"}, "[9]": {"tested_on": "Micrococcus luteus A270"}, "[10]": {"tested_on": "Bacillus subtilis 168 HT"}, "[11]": {"tested_on": "Escherichia coli MG1655"}, "[12]": {"tested_on": "Escherichia coli ATCC 25922"}, "[13]": {"tested_on": "Klebsiella pneumoniae ATCC 700603"}, "[14]": {"tested_on": "Pseudomonas aeruginosa ATCC 27853"}, "[15]": {"tested_on": "Staphylococcus aureus ATCC 33591"}, "[16]": {"tested_on": "Staphylococcus aureus ATCC 700699"}, "[17]": {"tested_on": "Candida albicans"}, "[18]": {"tested_on": "Escherichia coli UB1005"}, "[19]": {"tested_on": "Pseudomonas aeruginosa H103"}, "[20]": {"tested_on": "Salmonella enterica serovar Typhimurium"}, "[21]": {"tested_on": "Staphylococcus epidermidis"}, "[22]": {"tested_on": "Bacillus anthracis Sterne 34F2"}, "[23]": {"tested_on": "Bacillus subtilis ATCC 9372"}, "[24]": {"tested_on": "Burkholderia thailandensis"}}, "data": [{"compound": "CC(C)C[C@H](NC(=O)[C@H](C)NC(=O)[C@H](Cc1cnc[nH]1)NC(=O)[C@H](Cc1cnc[nH]1)NC(=O)CNC(=O)[C@H](CC(C)C)NC(=O)[C@@H](N)Cc1cnc[nH]1)C(=O)N[C@@H](CC(=O)O)C(=O)N[C@@H](Cc1cnc[nH]1)C(=O)N[C@@H](CC(C)C)C(=O)N[C@@H](CC(C)C)C(=O)N[C@@H](CCCCN)C(=O)O", "note": "[HLGHHALDHLLK]", "values": [{"measurement": "MIC", "setting": "[1]", "result": "> 8990", "unit": "µM"}, {"measurement": "MIC", "setting": "[2]", "result": "≥ 8990", "unit": "µM"}, {"measurement": "MIC", "setting": "[3]", "result": 8990, "unit": "µM"}, {"measurement": "MIC", "setting": "[4]", "result": "> 8990", "unit": "µM"}, {"measurement": "MIC", "setting": "[5]", "result": 8990, "unit": "µM"}, {"measurement": "MIC", "setting": "[6]", "result": "≥ 8990", "unit": "µM"}]}, {"compound": "CC(C)C[C@H](NC(=O)[C@H](CO)NC(=O)[C@H](Cc1cnc[nH]1)NC(=O)[C@H](CO)NC(=O)[C@H](CC(C)C)NC(=O)[C@H](CC(C)C)NC(=O)[C@@H](N)CCCCN)C(=O)O", "note": "[KLLSHSL]", "values": [{"measurement": "MIC", "setting": "[7]", "result": 78.4, "unit": "µM"}, {"measurement": "MIC", "setting": "[8]", "result": "≥ 39.2", "unit": "µM"}, {"measurement": "MIC", "setting": "[9]", "result": "≥ 39.2", "unit": "µM"}]}, {"compound": "CSCC[C@H](NC(=O)[C@H](CCCCN)NC(=O)[C@H](CCCCN)NC(=O)[C@H](CC(C)C)NC(=O)[C@H](CC(C)C)NC(=O)[C@H](CCCN=C(N)N)NC(=O)[C@H](CCCN=C(N)N)NC(=O)[C@H](CCCCN)NC(=O)[C@H](C)N)C(=O)N[C@@H](CCCCN)C(=O)O", "note": "[AKRRLLKKMK]", "values": [{"measurement": "MIC", "setting": "[10]", "result": "≥ 101", "unit": "µM"}, {"measurement": "MIC", "setting": "[11]", "result": "≥ 101", "unit": "µM"}]}, {"compound": "CC[C@H](C)[C@H](NC(=O)[C@H](CC(=O)O)NC(=O)[C@H](CCCCN)NC(=O)[C@H](C)NC(=O)[C@H](C)NC(=O)[C@H](C)NC(=O)[C@H](CCCCN)NC(=O)[C@H](CC(C)C)NC(=O)[C@@H](NC(=O)[C@H](CC(=O)O)NC(=O)[C@@H](NC(=O)[C@@H](NC(=O)CN)C(C)C)C(C)C)[C@@H](C)CC)C(=O)N[C@@H](C)C(=O)NCC(=O)N[C@@H](Cc1cnc[nH]1)C(=O)N[C@@H](CC(C)C)C(=O)N[C@@H](C)C(=O)N[C@@H](CO)C(=O)N[C@@H](CCCCN)C(=O)N[C@H](C(=O)N[C@@H](CCSC)C(=O)N[C@@H](CC(N)=O)C(=O)N[C@@H](CCCCN)C(=O)N[C@@H](CC(C)C)C(N)=O)C(C)C", "note": "[GVVDILKAAAKDIAGHLASKVMNKL]", "values": [{"measurement": "MIC", "setting": "[12]", "result": 25, "unit": "µM"}, {"measurement": "MIC", "setting": "[13]", "result": 50, "unit": "µM"}, {"measurement": "MIC", "setting": "[14]", "result": 100, "unit": "µM"}, {"measurement": "MIC", "setting": "[4]", "result": "> 100", "unit": "µM"}, {"measurement": "MIC", "setting": "[15]", "result": "≥ 100", "unit": "µM"}, {"measurement": "MIC", "setting": "[16]", "result": "≥ 100", "unit": "µM"}]}, {"compound": "CC(C)[C@H](NC(=O)[C@H](CCC(N)=O)NC(=O)[C@H](CS)NC(=O)[C@H](C)NC(=O)[C@H](CCCCN)NC(=O)[C@H](CCCN=C(N)N)NC(=O)[C@H](CC(N)=O)NC(=O)[C@H](CCCCN)NC(=O)[C@H](CCCCN)NC(=O)[C@H](Cc1c[nH]c2ccccc12)NC(=O)[C@@H](NC(=O)[C@H](CCCCN)NC(=O)CNC(=O)[C@@H](N)CC(N)=O)[C@@H](C)O)C(=O)N[C@@H](CCCCN)C(=O)O", "note": "[NGKTWKKNRKACQVK]", "values": [{"measurement": "MIC", "setting": "[10]", "result": "≥ 71.5", "unit": "µM"}, {"measurement": "MIC", "setting": "[11]", "result": "≥ 71.5", "unit": "µM"}]}, {"compound": "CC(C)C[C@H](NC(=O)[C@@H](N)CCCN=C(N)N)C(=O)N[C@@H](Cc1c[nH]c2ccccc12)C(=O)N[C@@H](Cc1c[nH]c2ccccc12)C(=O)N[C@@H](Cc1c[nH]c2ccccc12)C(=O)N[C@@H](Cc1c[nH]c2ccccc12)C(=O)N[C@@H](CCCN=C(N)N)C(=O)N[C@@H](CCCN=C(N)N)C(=O)N[C@@H](CCCCN)C(=O)O", "note": "[RLWWWWRRK]", "values": [{"measurement": "MIC", "setting": "[17]", "result": 4.1, "unit": "µM"}, {"measurement": "MIC", "setting": "[1]", "result": 4.1, "unit": "µM"}, {"measurement": "MIC", "setting": "[18]", "result": 4.1, "unit": "µM"}, {"measurement": "MIC", "setting": "[19]", "result": 16.6, "unit": "µM"}, {"measurement": "MIC", "setting": "[20]", "result": 8.3, "unit": "µM"}, {"measurement": "MIC", "setting": "[3]", "result": 2.1, "unit": "µM"}, {"measurement": "MIC", "setting": "[21]", "result": 0.5, "unit": "µM"}]}, {"compound": "CC[C@H](C)[C@H](NC(=O)[C@@H](N)CCCN=C(N)N)C(=O)N[C@@H](CCCN=C(N)N)C(=O)N[C@@H](CCCN=C(N)N)C(=O)N[C@@H](Cc1c[nH]c2ccccc12)C(=O)N[C@@H](CCCCN)C(=O)N[C@@H](Cc1ccccc1)C(=O)N[C@@H](CCCN=C(N)N)C(=O)N[C@@H](Cc1c[nH]c2ccccc12)C(=O)O", "note": "[RIRRWKFRW]", "values": [{"measurement": "MIC", "setting": "[17]", "result": 21.3, "unit": "µM"}, {"measurement": "MIC", "setting": "[1]", "result": 5.3, "unit": "µM"}, {"measurement": "MIC", "setting": "[18]", "result": 5.3, "unit": "µM"}, {"measurement": "MIC", "setting": "[19]", "result": "≥ 42.6", "unit": "µM"}, {"measurement": "MIC", "setting": "[20]", "result": 5.3, "unit": "µM"}, {"measurement": "MIC", "setting": "[3]", "result": 1.3, "unit": "µM"}, {"measurement": "MIC", "setting": "[21]", "result": 1.3, "unit": "µM"}]}, {"compound": "CC[C@H](C)[C@H](NC(=O)[C@H](C)NC(=O)[C@@H](NC(=O)[C@@H](NC(=O)CN)C(C)C)C(C)C)C(=O)N[C@@H](CC(C)C)C(=O)N[C@@H](CCCCN)C(=O)NCC(=O)N[C@@H](C)C(=O)N[C@@H](C)C(=O)N[C@@H](CCCCN)C(=O)N[C@@H](CC(=O)O)C(=O)N[C@H](C(=O)N[C@@H](C)C(=O)NCC(=O)N[C@@H](Cc1cnc[nH]1)C(=O)N[C@@H](CC(C)C)C(=O)N[C@@H](C)C(=O)N[C@@H](CO)C(=O)N[C@@H](CCCCN)C(=O)N[C@H](C(=O)N[C@@H](CCSC)C(=O)N[C@@H](CC(N)=O)C(=O)N[C@@H](CCCCN)C(=O)N[C@@H](CC(C)C)C(N)=O)C(C)C)[C@@H](C)CC", "note": "[GVVAILKGAAKDIAGHLASKVMNKL]", "values": [{"measurement": "MIC", "setting": "[12]", "result": 50, "unit": "µM"}, {"measurement": "MIC", "setting": "[13]", "result": 50, "unit": "µM"}, {"measurement": "MIC", "setting": "[14]", "result": "> 100", "unit": "µM"}, {"measurement": "MIC", "setting": "[4]", "result": "> 100", "unit": "µM"}, {"measurement": "MIC", "setting": "[15]", "result": "≥ 100", "unit": "µM"}, {"measurement": "MIC", "setting": "[16]", "result": "≥ 100", "unit": "µM"}]}, {"compound": "CC(C)C[C@H](NC(=O)[C@H](Cc1ccccc1)NC(=O)[C@H](CS)NC(=O)[C@@H](NC(=O)[C@H](CC(C)C)NC(=O)[C@H](CCCN=C(N)N)NC(=O)[C@H](Cc1c[nH]c2ccccc12)NC(=O)[C@@H](N)CCCN=C(N)N)C(C)C)C(=O)N[C@@H](CS)C(=O)N[C@@H](CCCN=C(N)N)C(=O)N[C@@H](CCCN=C(N)N)C(=O)N[C@@H](CCCCN)C(=O)N[C@@H](CCCCN)C(=O)N[C@H](C(=O)O)C(C)C", "note": "[RWRLVCFLCRRKKV]", "values": [{"measurement": "MIC", "setting": "[10]", "result": 8.6, "unit": "µM"}, {"measurement": "MIC", "setting": "[11]", "result": 17.2, "unit": "µM"}]}, {"compound": "CC[C@H](C)[C@H](NC(=O)CNC(=O)[C@@H](NC(=O)[C@H](CCCCN)NC(=O)[C@H](CCCCN)NC(=O)CNC(=O)[C@@H](NC(=O)[C@H](CCCCN)NC(=O)[C@H](Cc1c[nH]c2ccccc12)NC(=O)[C@H](CCCCN)NC(=O)[C@H](CCSC)NC(C)=O)[C@@H](C)CC)[C@@H](C)CC)C(=O)NCC(=O)N[C@@H](CCCCN)C(=O)N[C@@H](Cc1ccccc1)C(=O)N[C@@H](CC(C)C)C(=O)N[C@@H](Cc1cnc[nH]1)C(=O)N[C@@H](CO)C(=O)N[C@@H](C)C(=O)N[C@@H](CCCCN)C(=O)N[C@@H](CCCCN)C(=O)N[C@@H](Cc1ccccc1)C(=O)N[C@@H](CC(N)=O)C(N)=O", "note": "[MKWKIGKKIGIGKFLHSAKKFN]", "values": [{"measurement": "MIC", "setting": "[22]", "result": "≥ 100", "unit": "µM"}, {"measurement": "MIC", "setting": "[23]", "result": "≥ 100", "unit": "µM"}, {"measurement": "MIC", "setting": "[24]", "result": "≥ 50", "unit": "µM"}]}, {"compound": "CSCC[C@H](NC(=O)[C@H](Cc1ccccc1)NC(=O)CNC(=O)CNC(=O)[C@H](Cc1ccc(O)cc1)NC(=O)[C@H](CCCN=C(N)N)NC(=O)[C@H](CCCCN)NC(=O)[C@H](CCC(=O)O)NC(=O)[C@H](CCSC)NC(=O)[C@H](CCC(=O)O)NC(=O)[C@@H]1CCCN1C(=O)[C@@H]1CCCN1C(=O)[C@H](CCC(=O)O)NC(=O)[C@H](CCCCN)NC(=O)[C@H](CO)NC(=O)[C@H](Cc1ccc(O)cc1)NC(=O)[C@H](CO)NC(=O)[C@H](CCC(=O)O)NC(=O)CNC(=O)[C@H](CCC(=O)O)NC(=O)[C@H](CCC(=O)O)NC(=O)[C@H](CCC(=O)O)NC(=O)[C@H](CO)NC(=O)[C@@H]1CCCN1C(=O)[C@H](CC(C)C)NC(=O)[C@@H]1CCCN1C(=O)[C@H](CCC(=O)O)NC(=O)[C@H](C)NC(=O)[C@H](Cc1ccccc1)NC(C)=O)C(N)=O", "note": "[FAEPLPSEEEGESYSKEPPEMEKRYGGFM]", "values": [{"measurement": "MIC", "setting": "[22]", "result": "≥ 100", "unit": "µM"}, {"measurement": "MIC", "setting": "[23]", "result": "≥ 100", "unit": "µM"}, {"measurement": "MIC", "setting": "[24]", "result": "≥ 50", "unit": "µM"}]}]}
